Test results from EP0641797A1, “Cephem derivatives and antimicrobial agents containing the same” (KATAYAMA SEIYAKUSYO CO. Ltd., priority 1993, dated 1995).
In brackets after ≈: the same amount, converted by molar mass.

How the values were obtained:
Assay in all cases: MIC on standard strains, standard method of Japan Society of Chemotherapy
Type in all cases: cell-based
A. calcoaceticos T59 = settings: read-out: MIC
Summary of the method: (§1)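 Test compounds were run alongside cefotiam and flomoxef controls, with growth inhibition assessed by the standard protocol of the Japan Society of Chemotherapy on 25 reference strains.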

A. faecalis ATCC 3750 = settings: Alcaligenes faecalis, ATCC3750, A. faecalis ATCC 3750; read-out: MIC
Summary of the method: as §1

B. subtilis ATCC 6633 = settings: Bacillus subtilis, ATCC6633, B. subtilis ATCC 6633; read-out: MIC
Summary of the method: as §1

C. freundii ATCC 8090 = settings: Citrobacter freundii, ATCC8090, C. freundii ATCC 8090; read-out: MIC
Summary of the method: as §1

E. cloacae ATCC 13407 = settings: Enterobacter cloacae, ATCC13407, E. cloacae ATCC 13407; read-out: MIC
Summary of the method: as §1

E. cloacae Nek39 = settings: Enterobacter cloacae, NEK39, E. cloacae Nek39; read-out: MIC
Summary of the method: as §1

E. coli CSH2(RE45) = settings: Escherichia coli
Summary of the method: (§2)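 Antibacterial activity is measured by the Japan Society of Chemotherapy method. Flomoxef and cefotiam act as control agents.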

E. coli CSH2(RK1) = settings: Escherichia coli
Summary of the method: as §2

E. coli NHIJ JC-2 = settings: Escherichia coli, NHIJJC2
Summary of the method: as §1

K. pneuminiae IFO 3317 = test system: K. pneuminiae IFO 3317
Summary of the method: as §1

K. pneuminiae No. 42 = test system: K. pneuminiae No. 42
Summary of the method: as §1

M. luteus ATCC 9341 = settings: Micrococcus luteus, ATCC9341
Summary of the method: as §1

M. morganii IFO 3848 = settings: Morganella morganii, IFO3848
Summary of the method: as §1

P. aeruginosa AKR17 = settings: Pseudomonas aeruginosa
Summary of the method: as §1

P. aeruginosa NCTC 10490 = settings: Pseudomonas aeruginosa, NCTC10490, P. aeruginosa NCTC 10490; read-out: MIC
Summary of the method: as §1

P. cepacia = settings: Burkholderia cepacia, read-out: MIC
Summary of the method: as §1

P. mirabilis IFO 3849 = settings: Proteus mirabilis, IFO3849, P. mirabilis IFO 3849; read-out: MIC
Summary of the method: as §1

P. vulugaris OX-19 = test system: P. vulugaris OX-19
Summary of the method: as §1

S. aureus 167 = settings: Staphylococcus aureus; S. aureus 167 (MRSA)
Summary of the method: as §1

S. aureus 195 = settings: Staphylococcus aureus; S. aureus 195 (MRSA)
Summary of the method: as §1

S. aureus 209p JC-1 = settings: Staphylococcus aureus, 209P, read-out: MIC
Summary of the method: as §1

S. aureus Smith = settings: Staphylococcus aureus, read-out: MIC
Summary of the method: as §1

S. epidemidis IAM 1296 = test system: S. epidemidis IAM 1296
Summary of the method: as §1

S. marcescens IAM 1184 = settings: Serratia marcescens, IAM1184, S. marcescens IAM 1184; read-out: MIC
Summary of the method: as §1

S. marcescens No. 16-2 = settings: Serratia marcescens, NO.162
Summary of the method: as §1

SMILES: Nc1nc(/C(=N/O)C(=O)N[C@@H]2C(=O)N3C(C(=O)[O-])=C(C[n+]4ccc(-c5ncon5)cc4)CS[C@H]23)cs1 [Ex. 17, 7β-[2-(2-aminothiazol-4-yl)-2-syn-hydroxyiminoacetamido]-3-[4-(1,2,4-oxadiazol-3-yl)pyridinio]methyl-3-cephem-4-carboxylate]
- MIC (A. calcoaceticos T59): 12.5 µg/mL (≈ 23.7 µM)
- MIC (A. faecalis ATCC 3750): 3.13 µg/mL (≈ 5.92 µM)
- MIC (B. subtilis ATCC 6633): 0.39 µg/mL (≈ 0.738 µM)
- MIC (C. freundii ATCC 8090): 0.39 µg/mL (≈ 0.738 µM)
- MIC (E. cloacae ATCC 13407): 6.25 µg/mL (≈ 11.8 µM)
- MIC (E. cloacae Nek39): 50 µg/mL (≈ 94.6 µM)
- MIC (E. coli CSH2(RE45)): 0.78 µg/mL (≈ 1.48 µM)
- MIC (E. coli CSH2(RK1)): 0.78 µg/mL (≈ 1.48 µM)
- MIC (E. coli NHIJ JC-2): 0.39 µg/mL (≈ 0.738 µM)
- MIC (K. pneuminiae IFO 3317): 0.39 µg/mL (≈ 0.738 µM)
- MIC (K. pneuminiae No. 42): 0.78 µg/mL (≈ 1.48 µM)
- MIC (M. luteus ATCC 9341): 0.1 µg/mL (≈ 0.189 µM)
- MIC (M. morganii IFO 3848): 0.2 µg/mL (≈ 0.378 µM)
- MIC (P. aeruginosa AKR17): > 100 µg/mL
- MIC (P. aeruginosa NCTC 10490): 3.13 µg/mL (≈ 5.92 µM)
- MIC (P. cepacia): > 100 µg/mL
- MIC (P. mirabilis IFO 3849): 0.39 µg/mL (≈ 0.738 µM)
- MIC (P. vulugaris OX-19): 0.39 µg/mL (≈ 0.738 µM)
- MIC (S. aureus 167): 6.25 µg/mL (≈ 11.8 µM)
- MIC (S. aureus 195): 3.13 µg/mL (≈ 5.92 µM)
- MIC (S. aureus 209p JC-1): 0.39 µg/mL (≈ 0.738 µM)
- MIC (S. aureus Smith): 0.78 µg/mL (≈ 1.48 µM)
- MIC (S. epidemidis IAM 1296): 0.2 µg/mL (≈ 0.378 µM)
- MIC (S. marcescens IAM 1184): 0.39 µg/mL (≈ 0.738 µM)
- MIC (S. marcescens No. 16-2): > 100 µg/mL
